Reference: ChEMBL document CHEMBL1629443 (J Med Chem, 2010)
Activity calls are given as the source filed them. The rule behind the calls is not given here.

Legend:
[1] = molecular target: Histone deacetylase 1 (Homo sapiens, UniProt Q13547); test: Inhibition of human recombinant HDAC1 expressed in HEK293 cells; type: cell-based
[2] = molecular target: Cyclin-dependent kinase 2 (Homo sapiens, UniProt P24941); test: Inhibition of CDK2 by flash plate based radioactive enzyme assay
[3] = system: CAL-27; test: Cytotoxicity against human CAL27 cells overexpressing EGFR by resazurin dye reduction assay
[4] = molecular target: Histone deacetylase 3 (Homo sapiens, UniProt O15379); test: Inhibition of Flag tagged human recombinant HDAC3 expressed in Sf21 cells coexpressing SMRT DAD domain
[5] = Inhibition of PKA by flash plate based radioactive enzyme assay
[6] = system: A549; test: Cytotoxicity against human A549 cells overexpressing HDAC by resazurin dye reduction assay
[7] = system: HeLa; test: Cytotoxicity against human HeLa cells overexpressing HDAC by resazurin dye reduction assay
[8] = molecular target: Platelet-derived growth factor receptor beta (Homo sapiens, UniProt P09619); test: Inhibition of PDGFRbeta by flash plate based radioactive enzyme assay
[9] = molecular target: T1, Histone deacetylase 8 (Homo sapiens, UniProt Q9BY41); test: Inhibition of Flag tagged human recombinant HDAC8 expressed in Sf21 cells
T1 sequence (Q9BY41 whole entry): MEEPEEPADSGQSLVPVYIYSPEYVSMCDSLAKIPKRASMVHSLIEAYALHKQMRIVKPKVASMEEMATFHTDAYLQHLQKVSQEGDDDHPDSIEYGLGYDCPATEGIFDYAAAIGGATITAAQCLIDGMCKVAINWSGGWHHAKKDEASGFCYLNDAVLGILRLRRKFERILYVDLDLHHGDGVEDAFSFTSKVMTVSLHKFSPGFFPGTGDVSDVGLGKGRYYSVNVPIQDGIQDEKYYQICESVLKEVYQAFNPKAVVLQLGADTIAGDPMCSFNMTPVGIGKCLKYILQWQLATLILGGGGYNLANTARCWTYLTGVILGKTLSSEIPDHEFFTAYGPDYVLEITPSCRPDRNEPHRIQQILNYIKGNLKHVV

[10] = system: SK-OV-3; test: Cytotoxicity against human SKOV3 cells overexpressing HER2 by resazurin dye reduction assay; type: functional, cell-based
[11] = molecular target: T2, Epidermal growth factor receptor (Homo sapiens, UniProt P00533); test: Inhibition of EGF-induced EGFR phosphorylation in human CAL27 cells overexpressing EGFR after 16 hrs by Western blot; type: cell-based, CAL-27
T2 sequence (P00533 whole entry): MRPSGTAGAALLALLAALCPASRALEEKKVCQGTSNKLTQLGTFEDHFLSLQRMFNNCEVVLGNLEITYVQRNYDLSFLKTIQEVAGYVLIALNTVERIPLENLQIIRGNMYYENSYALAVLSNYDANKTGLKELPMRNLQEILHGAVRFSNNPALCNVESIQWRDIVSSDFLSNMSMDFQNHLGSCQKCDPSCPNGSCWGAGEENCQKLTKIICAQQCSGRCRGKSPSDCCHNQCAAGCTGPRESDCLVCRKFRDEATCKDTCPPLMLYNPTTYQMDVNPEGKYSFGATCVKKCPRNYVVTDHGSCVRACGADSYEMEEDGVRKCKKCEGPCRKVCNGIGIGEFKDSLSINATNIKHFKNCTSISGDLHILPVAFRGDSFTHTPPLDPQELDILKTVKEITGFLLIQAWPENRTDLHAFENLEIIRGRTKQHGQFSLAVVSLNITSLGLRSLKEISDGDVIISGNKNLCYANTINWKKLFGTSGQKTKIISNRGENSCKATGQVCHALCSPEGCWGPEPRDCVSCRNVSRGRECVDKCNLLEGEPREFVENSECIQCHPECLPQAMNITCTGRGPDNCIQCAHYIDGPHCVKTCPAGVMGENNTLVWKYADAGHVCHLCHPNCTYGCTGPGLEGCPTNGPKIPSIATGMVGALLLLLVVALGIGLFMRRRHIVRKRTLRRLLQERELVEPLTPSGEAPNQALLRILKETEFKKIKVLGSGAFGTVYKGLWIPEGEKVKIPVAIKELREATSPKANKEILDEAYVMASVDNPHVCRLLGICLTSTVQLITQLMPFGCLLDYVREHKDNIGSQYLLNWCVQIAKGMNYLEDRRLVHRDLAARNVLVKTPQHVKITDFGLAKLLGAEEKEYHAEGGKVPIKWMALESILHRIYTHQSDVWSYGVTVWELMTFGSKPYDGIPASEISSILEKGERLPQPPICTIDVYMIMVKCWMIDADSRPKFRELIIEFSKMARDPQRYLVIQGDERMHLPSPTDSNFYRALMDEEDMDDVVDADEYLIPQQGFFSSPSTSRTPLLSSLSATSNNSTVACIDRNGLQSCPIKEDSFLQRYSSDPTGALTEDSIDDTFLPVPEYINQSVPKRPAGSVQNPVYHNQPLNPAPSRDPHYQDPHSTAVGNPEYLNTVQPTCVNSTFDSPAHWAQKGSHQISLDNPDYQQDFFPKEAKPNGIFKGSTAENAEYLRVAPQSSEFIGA

[12] = molecular target: Serine/threonine-protein kinase PLK1 (Homo sapiens, UniProt P53350); test: Inhibition of PLK1 by flash plate based radioactive enzyme assay
Sequence of Serine/threonine-protein kinase PLK1 (P53350 whole entry): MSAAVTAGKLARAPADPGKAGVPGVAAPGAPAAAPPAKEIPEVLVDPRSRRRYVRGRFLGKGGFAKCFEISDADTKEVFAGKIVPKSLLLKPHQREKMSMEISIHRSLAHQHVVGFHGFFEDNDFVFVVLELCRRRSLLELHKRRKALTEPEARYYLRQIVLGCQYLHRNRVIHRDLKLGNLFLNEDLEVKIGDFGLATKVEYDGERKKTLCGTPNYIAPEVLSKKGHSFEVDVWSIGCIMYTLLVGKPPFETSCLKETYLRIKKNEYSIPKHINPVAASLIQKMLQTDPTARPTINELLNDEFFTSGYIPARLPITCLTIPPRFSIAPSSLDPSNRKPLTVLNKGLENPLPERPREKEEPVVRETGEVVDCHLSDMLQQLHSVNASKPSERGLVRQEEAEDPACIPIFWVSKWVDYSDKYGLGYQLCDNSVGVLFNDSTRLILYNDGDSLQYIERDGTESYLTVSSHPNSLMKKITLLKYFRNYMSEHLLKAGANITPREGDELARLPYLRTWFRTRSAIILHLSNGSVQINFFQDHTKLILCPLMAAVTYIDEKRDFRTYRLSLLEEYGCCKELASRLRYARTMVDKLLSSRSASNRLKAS

[13] = molecular target: T3, Protein deacetylase HDAC6 (Homo sapiens, UniProt Q9UBN7); test: (§1) Inhibition of human recombinant HDAC6 expressed in HEK293 cells; type: cell-based
T3 sequence (Q9UBN7 whole entry): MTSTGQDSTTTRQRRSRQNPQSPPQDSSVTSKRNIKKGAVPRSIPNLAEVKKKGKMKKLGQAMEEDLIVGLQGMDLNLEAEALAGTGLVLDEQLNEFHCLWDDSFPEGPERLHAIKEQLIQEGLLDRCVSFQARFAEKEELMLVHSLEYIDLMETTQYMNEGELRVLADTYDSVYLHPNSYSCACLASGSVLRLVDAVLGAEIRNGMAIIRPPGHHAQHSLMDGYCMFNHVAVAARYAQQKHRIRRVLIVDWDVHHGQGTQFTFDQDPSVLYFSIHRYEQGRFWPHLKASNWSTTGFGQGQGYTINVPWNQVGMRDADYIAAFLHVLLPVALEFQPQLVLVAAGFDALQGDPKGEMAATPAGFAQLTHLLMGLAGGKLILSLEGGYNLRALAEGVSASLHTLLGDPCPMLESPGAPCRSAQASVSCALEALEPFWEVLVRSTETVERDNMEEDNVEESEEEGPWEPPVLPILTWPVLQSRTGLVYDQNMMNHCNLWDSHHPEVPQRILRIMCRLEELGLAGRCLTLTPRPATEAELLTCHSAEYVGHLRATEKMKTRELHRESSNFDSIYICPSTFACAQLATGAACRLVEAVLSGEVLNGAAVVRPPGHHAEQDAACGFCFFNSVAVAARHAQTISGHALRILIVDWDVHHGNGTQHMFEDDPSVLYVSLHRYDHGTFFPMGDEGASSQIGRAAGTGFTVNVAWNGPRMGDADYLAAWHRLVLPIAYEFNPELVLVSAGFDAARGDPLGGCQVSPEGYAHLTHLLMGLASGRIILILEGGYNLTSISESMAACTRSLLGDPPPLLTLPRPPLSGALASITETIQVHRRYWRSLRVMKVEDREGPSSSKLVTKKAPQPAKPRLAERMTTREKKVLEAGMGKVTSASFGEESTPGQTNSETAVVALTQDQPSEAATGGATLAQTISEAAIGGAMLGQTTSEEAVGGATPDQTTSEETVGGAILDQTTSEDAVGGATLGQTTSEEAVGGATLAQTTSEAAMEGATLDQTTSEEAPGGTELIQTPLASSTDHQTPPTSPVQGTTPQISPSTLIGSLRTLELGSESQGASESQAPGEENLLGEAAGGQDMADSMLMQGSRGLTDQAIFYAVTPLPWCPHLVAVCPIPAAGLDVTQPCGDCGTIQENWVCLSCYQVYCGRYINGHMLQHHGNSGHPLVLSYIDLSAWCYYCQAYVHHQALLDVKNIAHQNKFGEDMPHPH

[14] = molecular target: Tyrosine-protein kinase ABL1 (Homo sapiens, UniProt P00519); test: Inhibition of ABL1 by flash plate based radioactive enzyme assay
[15] = system: A-431; test: Cytotoxicity against human A431 cells overexpressing EGFR by resazurin dye reduction assay
[16] = molecular target: Histone deacetylase (Homo sapiens) (UniProt Q13547+O15379+Q9UBN7+Q92769+Q9UQL6+Q8WUI4+Q9BY41+Q96DB2+P56524+Q9UKV0+Q969S8); details: CAL-27, 1 uM
Description: Inhibition of HADC in human CAL27 cells overexpressing EGFR assessed as effect on histone H2 acetylation at 1 uM after 16 hrs by Western blot

[17] = Inhibition of HDAC assessed as histone H3K'9+14 acetylation levels by cell based histone H3 hyperacetylation assay
[18] = molecular target: Insulin receptor (Homo sapiens, UniProt P06213); test: Inhibition of INSR by flash plate based radioactive enzyme assay
Sequence of Insulin receptor (P06213 28-758 limits assumed): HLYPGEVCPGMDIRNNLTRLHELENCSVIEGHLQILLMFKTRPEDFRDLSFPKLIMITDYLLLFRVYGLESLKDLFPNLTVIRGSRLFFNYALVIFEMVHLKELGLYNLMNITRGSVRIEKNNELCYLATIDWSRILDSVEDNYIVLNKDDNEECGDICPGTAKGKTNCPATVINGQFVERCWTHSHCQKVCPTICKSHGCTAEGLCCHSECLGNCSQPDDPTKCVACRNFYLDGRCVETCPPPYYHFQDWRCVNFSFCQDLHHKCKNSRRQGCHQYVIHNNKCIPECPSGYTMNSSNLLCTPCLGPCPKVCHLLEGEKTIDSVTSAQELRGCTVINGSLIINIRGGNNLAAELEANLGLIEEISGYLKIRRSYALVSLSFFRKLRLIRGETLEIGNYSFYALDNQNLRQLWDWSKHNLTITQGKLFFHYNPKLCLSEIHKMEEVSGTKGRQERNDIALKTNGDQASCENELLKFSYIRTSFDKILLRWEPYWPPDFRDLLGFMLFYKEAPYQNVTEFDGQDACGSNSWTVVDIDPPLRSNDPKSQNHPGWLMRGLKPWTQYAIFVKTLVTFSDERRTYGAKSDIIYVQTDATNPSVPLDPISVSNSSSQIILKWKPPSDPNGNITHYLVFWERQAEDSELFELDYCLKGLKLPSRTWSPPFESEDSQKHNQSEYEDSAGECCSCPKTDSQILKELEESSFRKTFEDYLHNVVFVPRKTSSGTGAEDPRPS
Sequence of Insulin receptor (P06213 763-1382 limits assumed): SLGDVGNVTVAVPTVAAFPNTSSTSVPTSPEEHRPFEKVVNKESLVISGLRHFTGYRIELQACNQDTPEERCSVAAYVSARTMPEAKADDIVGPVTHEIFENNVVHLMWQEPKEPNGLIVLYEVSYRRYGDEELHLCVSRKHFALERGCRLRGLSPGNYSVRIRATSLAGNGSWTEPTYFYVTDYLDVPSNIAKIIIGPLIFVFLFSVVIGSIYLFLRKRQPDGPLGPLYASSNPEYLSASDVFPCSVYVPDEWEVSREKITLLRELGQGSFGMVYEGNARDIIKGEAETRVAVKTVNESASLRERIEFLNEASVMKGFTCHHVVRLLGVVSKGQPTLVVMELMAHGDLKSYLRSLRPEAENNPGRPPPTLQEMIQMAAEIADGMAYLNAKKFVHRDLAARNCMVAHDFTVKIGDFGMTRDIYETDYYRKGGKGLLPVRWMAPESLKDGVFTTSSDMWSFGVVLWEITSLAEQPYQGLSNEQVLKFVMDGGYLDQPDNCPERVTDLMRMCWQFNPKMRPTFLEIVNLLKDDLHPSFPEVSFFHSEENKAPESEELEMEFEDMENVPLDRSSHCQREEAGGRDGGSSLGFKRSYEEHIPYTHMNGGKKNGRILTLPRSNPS

[19] = molecular target: T2, Epidermal growth factor receptor; test: Inhibition of EGFR by flash plate based radioactive enzyme assay
[20] = molecular target: Receptor tyrosine-protein kinase erbB-2 (Homo sapiens, UniProt P04626); test: Inhibition of HER2 by flash plate based radioactive enzyme assay
Sequence of Receptor tyrosine-protein kinase erbB-2 (P04626 whole entry): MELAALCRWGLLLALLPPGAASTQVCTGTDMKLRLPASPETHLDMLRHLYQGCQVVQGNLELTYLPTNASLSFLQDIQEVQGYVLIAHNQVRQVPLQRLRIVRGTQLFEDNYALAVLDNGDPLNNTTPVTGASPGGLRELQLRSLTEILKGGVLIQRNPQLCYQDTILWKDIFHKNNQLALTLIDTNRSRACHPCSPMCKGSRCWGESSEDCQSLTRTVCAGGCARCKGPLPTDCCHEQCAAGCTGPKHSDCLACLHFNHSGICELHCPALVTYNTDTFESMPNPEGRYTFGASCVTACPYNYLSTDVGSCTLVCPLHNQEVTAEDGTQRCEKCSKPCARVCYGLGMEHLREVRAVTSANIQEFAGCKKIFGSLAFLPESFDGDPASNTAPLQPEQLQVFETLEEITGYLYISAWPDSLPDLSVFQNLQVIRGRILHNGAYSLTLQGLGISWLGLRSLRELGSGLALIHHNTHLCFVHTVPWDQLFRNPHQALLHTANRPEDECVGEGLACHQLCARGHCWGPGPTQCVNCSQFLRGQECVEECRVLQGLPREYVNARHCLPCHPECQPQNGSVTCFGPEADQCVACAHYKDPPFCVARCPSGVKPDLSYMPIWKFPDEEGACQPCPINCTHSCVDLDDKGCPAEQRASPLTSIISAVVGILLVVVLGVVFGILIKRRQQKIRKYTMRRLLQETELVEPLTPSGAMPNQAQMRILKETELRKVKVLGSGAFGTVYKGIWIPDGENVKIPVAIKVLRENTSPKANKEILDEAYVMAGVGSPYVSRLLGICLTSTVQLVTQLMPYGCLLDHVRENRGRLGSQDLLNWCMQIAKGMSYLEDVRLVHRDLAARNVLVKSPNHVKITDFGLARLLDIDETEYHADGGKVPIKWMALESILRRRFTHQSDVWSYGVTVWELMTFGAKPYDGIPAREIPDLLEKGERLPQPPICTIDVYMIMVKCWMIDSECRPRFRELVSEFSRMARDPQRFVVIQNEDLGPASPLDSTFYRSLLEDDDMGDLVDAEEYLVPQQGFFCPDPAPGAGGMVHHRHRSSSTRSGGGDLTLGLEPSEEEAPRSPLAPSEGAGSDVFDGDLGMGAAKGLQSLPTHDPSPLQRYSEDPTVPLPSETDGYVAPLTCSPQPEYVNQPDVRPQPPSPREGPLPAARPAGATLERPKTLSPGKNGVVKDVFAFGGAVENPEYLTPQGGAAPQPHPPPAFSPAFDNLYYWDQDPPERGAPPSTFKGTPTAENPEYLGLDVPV

[21] = molecular target: Histone deacetylase; test: Inhibition of HDAC in human HeLa cell nuclear extracts; type: cell-based
[22] = system: SK-BR-3; test: Cytotoxicity against human SKBR3 cells overexpressing HER2 by resazurin dye reduction assay
[23] = molecular target: Protein deacetylase HDAC6 (Homo sapiens) (UniProt Q9UBN7); test: as §1; type: cell-based

Sequence of Histone deacetylase 1 (Q13547 whole entry): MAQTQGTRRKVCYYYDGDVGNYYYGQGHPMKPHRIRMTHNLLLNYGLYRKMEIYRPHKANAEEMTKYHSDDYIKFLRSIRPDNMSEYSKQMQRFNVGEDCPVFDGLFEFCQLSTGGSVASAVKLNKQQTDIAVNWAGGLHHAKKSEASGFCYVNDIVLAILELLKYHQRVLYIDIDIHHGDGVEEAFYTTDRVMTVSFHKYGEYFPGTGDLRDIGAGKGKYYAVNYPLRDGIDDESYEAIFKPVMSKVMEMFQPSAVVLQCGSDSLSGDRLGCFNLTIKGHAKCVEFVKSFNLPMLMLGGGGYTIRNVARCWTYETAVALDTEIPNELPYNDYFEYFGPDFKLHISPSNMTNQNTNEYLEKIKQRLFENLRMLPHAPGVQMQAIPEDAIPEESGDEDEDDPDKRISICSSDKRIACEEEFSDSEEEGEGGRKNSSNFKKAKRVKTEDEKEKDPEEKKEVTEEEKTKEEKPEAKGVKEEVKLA

| SMILES | IC50 [2] [nM] | IC50 [3] [nM] | IC50 [5] [nM] | IC50 [6] [nM] | IC50 [10] [nM] | IC50 [12] [nM] | IC50 [14] [nM] | IC50 [15] [nM] | EC50 [17] [nM] | IC50 [18] [nM] | IC50 [19] [nM] | IC50 [20] [nM] | also measured |
| --- | --- | --- | --- | --- | --- | --- | --- | --- | --- | --- | --- | --- | --- |
| O=C(/C=C/c1cccc(-c2ccc3ncnc(Nc4ccc(OCc5cccc(F)c5)c(Cl)c4)c3c2)c1)NO | 920 | 590 | > 100000 | 1200 | 1000 | 6800 | 5300 | 720 | 4700 | 3600 | 18 | 11 | IC50 [1]: 35 nM; IC50 [4]: 66 nM; IC50 [7]: 970 nM; IC50 [8]: 2500 nM; IC50 [9]: 630 nM; IC50 [11]: 500 nM; IC50 [13]: 86 nM; inhibition [16]: Active; IC50 [21]: 47 nM; IC50 [22]: 350 nM |
| O=C(/C=C/c1ccc(-c2ccc3ncnc(Nc4ccc(OCc5cccc(F)c5)c(Cl)c4)c3c2)s1)NO | 440 | 660 | 35000 | 2600 | 4000 | 2700 | 2700 | 730 | > 100000 | 1900 | 4.8 | 3.5 | Emax [23]: 70% |
